Data on one compound can be found in US20250000872A1, “FORMULATIONS AND DOSING REGIMENS FOR RIP1 KINASE INHIBITORS FOR TREATING AUTOIMMUNE AND INFLAMMATORY DISEASES” (Eli Lilly and Company, priority 2023, published 2025).

The structures appear in SMILES notation. Where two headings read alike, the source gives them in different places.

The target of one series is T1, OATP1B3 (Homo sapiens, UniProt Q9NPD5).
T1 sequence (Q9NPD5 1-702): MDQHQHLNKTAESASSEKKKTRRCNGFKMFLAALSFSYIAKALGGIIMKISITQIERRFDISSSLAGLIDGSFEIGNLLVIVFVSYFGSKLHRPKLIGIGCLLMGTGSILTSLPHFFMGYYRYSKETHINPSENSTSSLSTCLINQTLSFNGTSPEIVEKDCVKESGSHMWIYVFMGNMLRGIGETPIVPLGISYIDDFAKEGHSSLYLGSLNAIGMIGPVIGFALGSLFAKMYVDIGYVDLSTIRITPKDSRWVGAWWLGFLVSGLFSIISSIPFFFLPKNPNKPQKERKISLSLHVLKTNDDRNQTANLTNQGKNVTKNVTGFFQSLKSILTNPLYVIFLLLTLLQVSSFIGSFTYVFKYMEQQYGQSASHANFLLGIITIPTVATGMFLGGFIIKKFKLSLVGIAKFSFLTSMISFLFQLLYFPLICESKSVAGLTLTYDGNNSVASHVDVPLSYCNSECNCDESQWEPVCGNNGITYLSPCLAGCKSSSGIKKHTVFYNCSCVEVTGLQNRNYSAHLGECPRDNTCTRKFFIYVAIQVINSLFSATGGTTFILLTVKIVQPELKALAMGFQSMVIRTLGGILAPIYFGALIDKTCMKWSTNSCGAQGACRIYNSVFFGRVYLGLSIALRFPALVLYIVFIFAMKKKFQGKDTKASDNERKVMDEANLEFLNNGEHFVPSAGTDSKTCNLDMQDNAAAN
The experiment in a line: In vitro drug-drug interaction studies: OATP1B3 transporter inhibition. The format is in vitro ADME. The following applies: based upon in vitro studies.

Series [1] in a line: Phase I first-in-human study: safety, tolerability and PK of single and multiple doses in healthy volunteers. The format is in vivo. The following applies: for AUC(0-t): human, estimated from AUC0-∞ at single dose of 125 mg in phase 1 study Part 3. On the procedure:
The study was conducted in 3 parts: single-ascending doses (Part 1A), multiple-ascending doses (Part 2), and formulation assessment (Part 1B and Part 3).

In a further series the target is T2, OCT1 (Homo sapiens, UniProt O15245).
T2 sequence (O15245 1-554): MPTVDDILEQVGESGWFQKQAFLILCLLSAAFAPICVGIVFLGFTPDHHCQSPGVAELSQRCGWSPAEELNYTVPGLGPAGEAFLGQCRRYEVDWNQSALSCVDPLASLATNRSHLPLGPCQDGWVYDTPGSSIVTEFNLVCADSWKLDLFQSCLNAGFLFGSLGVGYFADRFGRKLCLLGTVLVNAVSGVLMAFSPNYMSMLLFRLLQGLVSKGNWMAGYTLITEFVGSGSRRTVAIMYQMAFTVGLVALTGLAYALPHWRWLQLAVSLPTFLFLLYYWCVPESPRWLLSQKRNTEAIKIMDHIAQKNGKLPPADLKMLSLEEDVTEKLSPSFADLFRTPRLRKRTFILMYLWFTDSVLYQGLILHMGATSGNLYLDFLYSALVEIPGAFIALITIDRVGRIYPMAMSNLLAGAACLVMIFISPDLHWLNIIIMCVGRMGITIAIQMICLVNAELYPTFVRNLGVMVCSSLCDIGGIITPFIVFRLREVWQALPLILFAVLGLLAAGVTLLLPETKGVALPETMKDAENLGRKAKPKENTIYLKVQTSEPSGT
The series is described as follows: In vitro drug-drug interaction studies: OCT1 transporter inhibition. Conditions: based upon in vitro studies. The format is in vitro ADME.

The target in the next series is P-gp (Homo sapiens, UniProt P08183). The experiment in a line: In vitro drug-drug interaction studies: P-gp transporter inhibition. It counts as in vitro ADME. Conditions: based upon in vitro studies.
Sequence of P-gp (P08183 whole entry): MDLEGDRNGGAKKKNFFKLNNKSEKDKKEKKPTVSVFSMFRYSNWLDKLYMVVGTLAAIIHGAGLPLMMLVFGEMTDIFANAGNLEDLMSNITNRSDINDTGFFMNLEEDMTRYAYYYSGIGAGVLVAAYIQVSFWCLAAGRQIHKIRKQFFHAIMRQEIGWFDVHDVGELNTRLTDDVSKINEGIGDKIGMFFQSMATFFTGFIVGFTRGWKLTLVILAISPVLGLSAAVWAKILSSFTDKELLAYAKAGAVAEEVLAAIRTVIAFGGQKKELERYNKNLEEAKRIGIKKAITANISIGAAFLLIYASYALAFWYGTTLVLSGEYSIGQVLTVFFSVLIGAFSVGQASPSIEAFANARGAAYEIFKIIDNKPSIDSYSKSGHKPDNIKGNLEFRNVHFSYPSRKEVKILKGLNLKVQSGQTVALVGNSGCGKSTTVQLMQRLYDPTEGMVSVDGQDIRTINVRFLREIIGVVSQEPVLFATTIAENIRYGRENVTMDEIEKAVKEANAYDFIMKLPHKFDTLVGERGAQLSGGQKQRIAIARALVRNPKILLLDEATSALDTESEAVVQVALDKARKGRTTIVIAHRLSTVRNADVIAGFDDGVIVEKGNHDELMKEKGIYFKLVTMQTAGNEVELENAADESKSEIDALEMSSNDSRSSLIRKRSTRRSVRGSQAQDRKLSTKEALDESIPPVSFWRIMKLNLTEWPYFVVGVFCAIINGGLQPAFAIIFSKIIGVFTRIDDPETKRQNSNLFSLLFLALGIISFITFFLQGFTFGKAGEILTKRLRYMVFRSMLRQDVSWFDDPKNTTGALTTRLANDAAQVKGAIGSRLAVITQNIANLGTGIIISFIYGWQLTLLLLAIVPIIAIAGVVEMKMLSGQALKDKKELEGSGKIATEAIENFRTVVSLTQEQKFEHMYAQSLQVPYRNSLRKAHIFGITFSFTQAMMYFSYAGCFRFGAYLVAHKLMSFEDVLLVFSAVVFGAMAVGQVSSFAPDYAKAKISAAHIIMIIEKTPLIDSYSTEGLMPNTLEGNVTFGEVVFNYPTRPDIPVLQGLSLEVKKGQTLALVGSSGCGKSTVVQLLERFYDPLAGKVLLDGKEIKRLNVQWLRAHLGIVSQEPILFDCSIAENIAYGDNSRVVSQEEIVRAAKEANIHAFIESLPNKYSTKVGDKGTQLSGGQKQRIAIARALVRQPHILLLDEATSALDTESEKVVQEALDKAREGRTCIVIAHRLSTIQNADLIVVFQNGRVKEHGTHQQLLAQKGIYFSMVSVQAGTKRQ
The next series has as its target T3, BCRP (Homo sapiens, UniProt Q9UNQ0).
T3 sequence (Q9UNQ0 1-655): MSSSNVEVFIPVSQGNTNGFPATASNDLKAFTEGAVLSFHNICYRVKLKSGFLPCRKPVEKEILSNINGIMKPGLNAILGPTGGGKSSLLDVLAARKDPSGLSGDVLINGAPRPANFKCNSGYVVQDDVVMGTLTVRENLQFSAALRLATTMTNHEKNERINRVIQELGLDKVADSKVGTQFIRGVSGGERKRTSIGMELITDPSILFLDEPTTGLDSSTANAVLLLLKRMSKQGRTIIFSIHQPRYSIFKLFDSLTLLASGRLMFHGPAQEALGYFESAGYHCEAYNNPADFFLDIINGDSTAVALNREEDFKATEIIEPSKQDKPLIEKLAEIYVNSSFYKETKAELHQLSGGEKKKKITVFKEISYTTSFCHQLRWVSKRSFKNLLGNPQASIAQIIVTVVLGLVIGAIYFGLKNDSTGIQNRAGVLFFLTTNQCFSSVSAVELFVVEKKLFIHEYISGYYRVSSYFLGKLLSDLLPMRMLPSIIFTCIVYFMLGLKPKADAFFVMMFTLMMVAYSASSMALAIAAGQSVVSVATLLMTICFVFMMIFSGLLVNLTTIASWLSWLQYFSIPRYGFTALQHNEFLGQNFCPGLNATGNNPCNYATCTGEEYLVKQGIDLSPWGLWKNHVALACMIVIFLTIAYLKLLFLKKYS
The experiment in a line: In vitro drug-drug interaction studies: BCRP transporter inhibition. It counts as in vitro ADME. The following applies: based upon in vitro studies.

A further series has as its system CYP3A. The series is described as follows: In vitro drug-drug interaction studies: CYP3A inhibition. The format is in vitro ADME. The following applies: based upon in vitro studies.

For the compound `CN1C(=O)[C@@H](NC(=O)c2n[nH]c(Cc3ccccc3)n2)COc2ccc(C#CC(C)(C)O)cc21` [Compound I, (S)-5-benzyl-N-(7-(3-hydroxy-3-methylbut-1-yn-1-yl)-5-methyl-4-oxo-2,3,4,5-tetrahydrobenzo[b][1,4]oxazepin-3-yl)-1H-1,2,4-triazole-3-carboxamide], the “inhibition of substrates of OATP1B3 transporter” value against OATP1B3 is given as “may also inhibit”. In series [1] (dose range of 12 to 1000 mg), the Exposure versus dose entry was “increased in a proportional manner”. For the same compound, the AUC(0-t) in series [1] (plasma, oral, 0.7 mg/kg/day, read-out: AUC0-24, human dose 50 mg) was 16000 ng·h/mL; in series [1] (plasma, oral, 1.8 mg/kg/day, read-out: AUC0-24, human dose 125 mg), 40100 ng·h/mL. Besides, the half-life in series [1] (plasma, oral, human subjects) lay within 780 to 900 min. Further, the “inhibition of substrates of OCT1 transporter” value at OCT1 is on record as “may also inhibit”. Also, the “inhibition of substrates of P-gp transporter” value against P-gp is listed as “may also inhibit”. Moreover, at BCRP, the “inhibition of substrates of BCRP transporter” value was “may also inhibit”. Besides, the “inhibition of drugs metabolized by CYP3A” value in the series on CYP3A is given as “may inhibit”.
